Data reported in ChEMBL document CHEMBL5244246, “Recent advances in chemistry and bioactivity of marine cyanobacteria Moorea species” (Eur J Med Chem, 2020).
Values after ≈ are worked out from the molar mass of the structure shown. Values joined by “and” are separate entries in the source; they are usually repeats but may differ in a detail not shown here. Equal entries are not always repeated.

Assays:
[1] = test system: N2a; assay: Cytotoxicity against mouse Neuro2a cells assessed as inhibition of cell growth; type: functional, cell-based
[2] = Toxicity in brine shrimp assessed as lethal dose; details: artemia salina; read-out: LD50 (the source's name)
[3] = test system: Nitzschia amabilis; assay: Growth inhibition of marine diatom assessed as inhibition rate at 10 ug/ml relative to control; type: functional
[4] = test system: MCF7; assay: Cytotoxicity against human MCF7 cells assessed as inhibition of cell growth; type: functional, cell-based
[5] = test system: L1210; assay: Cytotoxicity against mouse L1210 cells assessed as inhibition of cell growth; type: functional, cell-based
[6] = Toxicity in shrimp assessed as lethal dose; details: palaemon paucidens
[7] = test system: NCI-H460; assay: Cytotoxicity against human NCI-H460 cells; type: functional, cell-based
[8] = test system: Mycobacterium tuberculosis; assay: Antimycobacterial activity against Mycobacterium tuberculosis H37Rv assessed as inhibition of bacterial growth at 12.5 ug/ml relative to control; type: functional
[9] = test system: A549; assay: Cytotoxicity against human A549 cells assessed as cell growth inhibition; type: functional, cell-based
[10] = test system: MDA-MB-231; assay: Cytotoxicity against human MDA-MB-231 cells assessed as cell growth inhibition; type: functional
[11] = test system: HT-29; assay: Cytotoxicity against human HT-29 cells assessed as cell growth inhibition; type: functional
[12] = target: Protein kinase C delta type (Homo sapiens, UniProt Q05655); assay: Inhibition of [3H]-PDBu binding to PKCdelta C1B domain (unknown origin) by competitive binding assay
Protein kinase C delta type, sequence (Q05655 whole entry, the tested form may be a part): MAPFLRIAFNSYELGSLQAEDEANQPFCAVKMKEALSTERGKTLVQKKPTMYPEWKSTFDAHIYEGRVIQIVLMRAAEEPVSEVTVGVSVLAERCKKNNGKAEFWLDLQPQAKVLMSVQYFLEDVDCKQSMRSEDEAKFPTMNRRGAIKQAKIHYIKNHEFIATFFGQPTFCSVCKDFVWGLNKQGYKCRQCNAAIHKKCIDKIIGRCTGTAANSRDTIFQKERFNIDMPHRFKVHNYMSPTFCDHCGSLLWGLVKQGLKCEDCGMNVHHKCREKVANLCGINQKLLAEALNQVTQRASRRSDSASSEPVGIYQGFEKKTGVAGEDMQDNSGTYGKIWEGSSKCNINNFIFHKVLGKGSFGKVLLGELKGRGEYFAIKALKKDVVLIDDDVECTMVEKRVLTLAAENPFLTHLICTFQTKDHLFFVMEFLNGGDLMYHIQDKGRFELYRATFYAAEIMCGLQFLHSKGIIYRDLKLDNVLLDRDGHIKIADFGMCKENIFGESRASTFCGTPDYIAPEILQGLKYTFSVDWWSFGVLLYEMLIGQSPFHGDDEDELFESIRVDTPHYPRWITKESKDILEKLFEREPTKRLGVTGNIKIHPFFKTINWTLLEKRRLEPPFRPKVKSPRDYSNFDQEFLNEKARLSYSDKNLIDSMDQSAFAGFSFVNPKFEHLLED

[13] = species on record: Homo sapiens; assay: Inhibition of Voltage-gated sodium channel (unknown origin) at 3 ug/ml incubated for 18 hrs by cell-based bioassay relative to control; details: dose 3.0 µg/ml
[14] = test system: L1210; assay: Cytotoxicity against mouse L1210 cells assessed as inhibition of cell growth at 10 ug/mL relative to control; type: functional

**Q.** Which IC50 ([1]; Mus musculus, N2a) does the source give for CCC1CC(C)CC(=O)N(C)/C=C/CCC(C)C(=O)N[C@@H](C(C)C)C(=O)N(C)[C@@H](Cc2ccccc2)C(=O)N(C)[C@@H]([C@@H](C)O)C(=O)N(C)[C@@H](Cc2ccccc2)C(=O)O1 (stereo not given in full) here?
**A.** 6 µM

**Q.** What about the LC50 [2] of the same compound?
**A.** 9 µM

**Q.** For CO[C@@H](CC[C@H](C)[C@@H]1CC=C[C@]2(O1)[C@H](C(=O)O[C@@H]1CC(=O)O[C@@H]1C)C(=O)[C@H](C)CC2(C)C)c1cc(O)ccc1Br, which inhibition at 10 µg/mL [3] is on record?
**A.** 30%

**Q.** For CCCCCCCCCCC[C@]1(CO)CCCC(=O)O1 [TANIKOLIDE], which LC50 [2] is on record?
**A.** 3.6 µg/mL

**Q.** For CC(=O)n1c(=O)ccn([C@H]2C[C@H](O)[C@@H](CO)O2)c1=O, which IC50 [4] is on record?
**A.** 18.2 µg/mL (≈ 67.3 µM)

**Q.** With CCCCCCCC[C@@H](C/C=C/CCC(=O)N(C)C/C(=C\Cl)C/C(=C\C(=O)N1CC(OC)=CC1=O)OC)OC as the compound, how does the IC50 [5] read?
**A.** 2.9 µM

**Q.** With CCCCCCCCC(O)C/C=C/CCC(=O)N(C)C/C(=C\Cl)C/C(=C\C(=O)N1CC(OC)=CC1=O)OC (stereo not given) as the compound, how does the LD50 [6] read?
**A.** 33.3 mg/kg

**Q.** What about the IC50 [5] of the same compound?
**A.** 2.9 µM

**Q.** With CCCCCCCCCCCC/C=C/C[C@@H](O)[C@H](CO[C@@H]1O[C@H](CO)[C@@H](O)[C@H](O)[C@H]1O)NC(=O)CCCCCCCCCCCCCCCCCCCCCCCCC as the compound, how does the IC50 [4] read?
**A.** 18.2 µg/mL (≈ 21.7 µM)

**Q.** What does the source list for CCCCCCCC[C@@H](C/C=C/CCC(=O)NC/C(=C/Cl)C1=CCCCC1=O)OC?
**A.** IC50 [7]: 1.1 µM; IC50 ([1]; Mus musculus, N2a): 0.49 µM

**Q.** With CCCCCCC[C@@H](C/C=C/CCC(=O)O)OC as the compound, how does the inhibition at 12.5 µg/mL [8] read?
**A.** 65%

**Q.** What about the GI50 [9] of the same compound?
**A.** 40 µM

**Q.** What about the GI50 [10] of the same compound?
**A.** 40 µM

**Q.** What about the GI50 [11] of the same compound?
**A.** 40 µM

**Q.** With O=c1ccn([C@H]2C[C@H](O)[C@@H](CO)O2)c(=O)n1CCc1ccccc1 as the compound, how does the IC50 [4] read?
**A.** 18.2 µg/mL (≈ 54.8 µM)

**Q.** Which inhibition at 10 µg/mL [3] does the source give for CO[C@@H](CC[C@H](C)[C@H]1O[C@@]23C[C@H](OC(=O)C[C@@H]([C@@H](C)O)OC(=O)C[C@](OC)(O2)[C@H](C)CC3(C)C)[C@@H]1C)c1cc(O)ccc1Br here?
**A.** 30%

**Q.** For CCC[C@H]1NC(=O)c2csc(n2)[C@H](C)NC(=O)[C@H](C(C)C)N(C)C(=O)[C@H](Cc2ccccc2)N(C)C(=O)[C@H](C)OC(=O)[C@@H]1C [ULONGAMIDE A], which IC50 ([1]; n2a) is on record?
**A.** 6 µM and 16 µM

**Q.** And the LC50 [2]?
**A.** 18 µM

**Q.** For CCCCCCC[C@@H](C/C=C/CCC(=O)N(C)C/C(=C/Cl)C/C(=C\C(=O)N1CC(OC)=CC1=O)OC)OC, which inhibition at 12.5 µg/mL [8] is on record?
**A.** 10%

**Q.** And the GI50 [9]?
**A.** 40 µM

**Q.** What about the GI50 [10] of the same compound?
**A.** 40 µM

**Q.** What about the GI50 [11] of the same compound?
**A.** 40 µM

**Q.** What does the source list for C=C[C@@](C)(CCC=C(C)C)c1ccc2c3c(c[nH]c13)C[C@@H](CO)NC(=O)[C@@H](C(C)C)N2C?
**A.** Ki [12]: 0.017 µM; LD100 [6]: 7.5 mg/kg; IC50 [5]: 20.4 µM

**Q.** What does the source list for C=C(CCNC(=O)CC/C=C/C[C@H](CCCCCCCC)OC)[C@@]12O[C@H]1[C@H](O[C@H]1OC[C@H](OC)[C@@H](O)[C@@H]1OC)C=C(C)C2=O?
**A.** IC50 [7]: 4 µM; IC50 ([1]; Mus musculus, N2a): 4 µM; inhibition [13]: 28%

**Q.** For CCCCCCCC[C@@H](C/C=C/CCC(=O)N(C)C/C(=C\Cl)C/C(=C\C(=O)N1C[C@H](O)CC1=O)OC)OC, which IC50 [5] is on record?
**A.** 2.9 µM

**Q.** With CO[C@@H](CC[C@H](C)[C@H]1O[C@@]23C[C@H](OC(=O)C[C@H]([C@@H](C)O)OC(=O)/C=C(\O2)[C@@](C)(OO)CC3(C)C)[C@@H]1C)c1cccc(O)c1 as the compound, how does the inhibition at 10 µg/mL ([14]; Mus musculus, L1210, dose 10 µg/ml) read?
**A.** 10%

**Q.** Which Ki [12] does the source give for C=C[C@@](C)(CCC=C(C)C)c1ccc2c3c1NC(=O)[C@@]3(O)C[C@@H](CO)NC(=O)[C@@H](C(C)C)N2 here?
**A.** 0.94 µM

**Q.** What about the LD33 [6] of the same compound?
**A.** 25 mg/kg

**Q.** And the IC50 [5]?
**A.** 321 µM

**Q.** For COC(=O)C(CCC#CC=C(Cl)Cl)C(CCC/C=C/CC(Cl)Cl)NC=O (stereo not given), which LC50 [2] is on record?
**A.** 1.7 µg/mL

**Q.** With CCCCCCCC[C@@H](C/C=C/CCC(=O)NC/C(=C/Cl)[C@]12O[C@H]1[C@H](O)CCC2=O)OC as the compound, how does the IC50 [7] read?
**A.** 4 µM

**Q.** What about the IC50 ([1]; Mus musculus, N2a) of the same compound?
**A.** 4 µM

**Q.** For CO[C@@H](CC[C@H](C)[C@H]1O[C@@]23C[C@H](OC(=O)C[C@H]([C@@H](C)O)OC(=O)/C=C(\O2)[C@]2(CO2)CC3(C)C)[C@@H]1C)c1cc(O)ccc1Br, which inhibition at 10 µg/mL [3] is on record?
**A.** 30%

**Q.** And the “inhibition (INH)” value ([14]; dose 10 µg/ml)?
**A.** 10% and 25%

**Q.** For CCCCCCC[C@@H](C/C=C/CCC(=O)N(C)C/C(=C/Cl)C/C(=C\C(=O)N1CC(O)CC1=O)OC)OC (stereo not given in full), which inhibition at 12.5 µg/mL [8] is on record?
**A.** 10%

**Q.** And the GI50 [9]?
**A.** 40 µM

**Q.** What about the GI50 [10] of the same compound?
**A.** 40 µM

**Q.** What about the GI50 [11] of the same compound?
**A.** 40 µM

**Q.** Which inhibition at 10 µg/mL [3] does the source give for CO[C@@H](CC[C@H](C)C1O[C@@]2(C=C[C@@H]1C)[C@H](C(=O)O[C@@H]1CC(=O)O[C@@H]1C)C(=O)[C@H](C)CC2(C)C)c1cccc(O)c1 (stereo not given in full) here?
**A.** 30%

**Q.** Which inhibition at 10 µg/mL [3] does the source give for CO[C@@H](CC[C@H](C)[C@H]1O[C@@]2(C[C@H](OC)[C@@H]1C)OC(CC(=O)O[C@@H]1CC(=O)O[C@@H]1C)=C(C)CC2(C)C)c1cc(O)ccc1Br here?
**A.** 30%
